In brackets after ≈: the same amount, converted by molar mass. Where two headings read alike, the source gives them in different places.
Columns and labels:
Assay type in all cases: cell-based
[1] = system: Chlamydia trachomatis strains 1-5; assay: Minimum inhibitory concentration (MIC) of antibiotics, predetermined by standard procedures
Procedure: After infection, there was no change of media at the 4 h time point. Once in an exponential growth phase, 20 hours PI, cells were treated with a single dose of different antibiotics. […] Strains used for this treatment protocol were Strain 1) serovar D lab strain (UW-3/Cx), Strain 2) serovar L2 wild type lab strain (434/Bu), Strain 3) serovar L2 lab created mutant strain, resistant to trimethoprim, Strain 4) serovar L2 lab created mutant strain, resistant to Spectinomycin and Strain 5) serovar L2 lab created mutant strain, resistant to Rifampicin. MIC for all serovars and each antibiotic was predetermined, using standard procedures documented in literature, and listed in the table below. […] Strains 1, 2, 3 and 4 are also susceptible to rifampicin, whilst strain 5 is resistant to that same antibiotic. Samples were then incubated at 37° C. with 5% CO2 and harvested at 1 hour PT, using SPG buffer and extracted immediately. Two biological replicates were obtained for each condition.

[2] = system: Chlamydia trachomatis strains 1-5 in HEp-2 cells; conditions: 1 hour PT
Procedure: After infection, there was no change of media at the 4 h time point. Once in an exponential growth phase, 20 hours PI, cells were treated with a single dose of different antibiotics. […] Strains used for this treatment protocol were Strain 1) serovar D lab strain (UW-3/Cx), Strain 2) serovar L2 wild type lab strain (434/Bu), Strain 3) serovar L2 lab created mutant strain, resistant to trimethoprim, Strain 4) serovar L2 lab created mutant strain, resistant to Spectinomycin and Strain 5) serovar L2 lab created mutant strain, resistant to Rifampicin. […] Samples were then incubated at 37° C. with 5% CO2 and harvested at 1 hour PT, using SPG buffer and extracted immediately. Two biological replicates were obtained for each condition.
The following example analyses the susceptibility of bacteria to a given drug, by estimation of the change of GAT levels relative to NED in TNA samples. These were then compared between samples treated with antibiotic and not treated (control). […] Treatment was as described in example 1, Treatment E (1.1.5). To obtain a measure GAT, Chlamydia DNA and RNA was amplified by RT-PCR using primers targeting two different locations of the omp1 gene and its transcripts. To measure NED, another region of Chlamydia DNA was co-amplified in the same RT-PCR using primers targeting a region of genomic DNA which is not transcribed. The levels of GAT and NED were estimated and used to calculate VITA Index. Further to this the VITA Indices of treated and untreated samples were used to calculate the ΔVITA Ratio.
Partzyme oligonucleotides, Reporter substrates and PCR primers used for amplification and detection of GAT1, GAT2 and NED were as per example 9 (9.1, 9.2 and 9.3 respectively). The RT-PCR conditions used were as described in Example 9 (9.5) and reactions contained either 5 μL of TNA template (1/1000 dilution) or no target (dH2O).
(§1) Chlamydia DNA and RNA from 2 GAT regions and one NED region, were co-amplified and detected in single RT-PCR from TNA extracted from chlamydia cultures. These cultures were treated with antibiotic or left untreated (control) at an exponential growth phase and harvested at 1 hour post treatment. […] The ΔCt was calculated as the differences between the Ct values of the NED and GAT1/2 signals.
The following example analyses the susceptibility of bacteria to a given drug, by estimation of the change of GAT levels relative to NED in TNA samples. These were then compared between samples treated with antibiotic and not treated (control). […] To obtain a measure GAT, Chlamydia DNA and RNA was amplified by RT-PCR using primers targeting two different locations of the omp1 gene and its transcripts. To measure NED, another region of Chlamydia DNA was co-amplified in the same RT-PCR using primers targeting a region of genomic DNA which is not transcribed. The levels of GAT and NED were estimated and used to calculate VITA Index. Further to this the VITA Indices of treated and untreated samples were used to calculate the ΔVITA.
as §1, with “antibiotic (Rifampicin)” for “antibiotic”, “(control) during the” for “(control) at an”, “at one” for “at 1”

[3] = system: Chlamydia trachomatis (serovar D) in HEp-2 cells; assay: Antibiotic susceptibility testing by VITA PCR, azithromycin, Treatment Protocol B; conditions: Example 7: 0.128 μg/mL at 24 h PI
Procedure: The levels of GAT and NED were estimated and used to calculate VITA Index.
(§2) The ΔCt was calculated as the differences between the Ct values of the NED and GAT1/2 signals.
To measure NED, another region of Chlamydia DNA was co-amplified in the same RT-PCR using primers targeting a region of genomic DNA which is not transcribed. The levels of GAT and NED were estimated and used to calculate VITA Index.
as §2

[4] = system: Chlamydia trachomatis strain 1 and strain 5 in HEp-2 cells; assay: Antibiotic susceptibility testing by VITA PCR, rifampicin, short incubation, Treatment Protocol C; conditions: for ΔVITA Ratio A/B: 0.256 μg/mL; for VITA Index: plus antibiotic 0.256 μg/mL
Procedure: After infection, there was no change of media at the 4 hour time point, essentially creating an unsynchronised population, which would be more similar to in vivo conditions. Once at an exponential growth phase, 20 hours PI, treatment was applied. This was achieved by replacing the DMEM for each well, with addition of either i) no antibiotic, or ii) antibiotic (0.256 μg/mL of Rifampicin). Samples were then either incubated at 37° C. with 5% CO2, and harvested after 5 minutes PT; or incubated at room temperature and harvested after 15 minutes PT. SPG buffer was used for harvest and TNA was extracted immediately after. Strains used for this treatment protocol were Strain 1) serovar D lab strain (UW-3/Cx), susceptible to rifampicin, and Strain 5) serovar L2 lab created mutant strain, resistant to Rifampicin.
The following example estimates the change of GAT levels relative to NED in TNA samples extracted from HEp-2 cells which had been infected with Chlamydia trachomatis strain 1 and strain 5 (serovar D lab strain and serovar L2 strain resistant to rifampicin respectively). TNA was extracted from cells, which had been either treated with the antibiotic Rifampicin at a concentration of 0.256 μg/mL, or not treated (control), at 20 hours post infection whilst in an exponential growth phase. Treatment was as described in example 1, Treatment C (1.1.3). To obtain a measure GAT, Chlamydia DNA and RNA was amplified by RT-PCR using primers targeting two different locations of the omp1 gene and its transcripts. To measure NED, another region of Chlamydia DNA was co-amplified in the same RT-PCR using primers targeting a region of genomic DNA which is not transcribed. The levels of GAT and NED were estimated and used to calculate VITA Index. Further to this the VITA Indices of treated and untreated samples were used to calculate the ΔVITA Ratio.
The reactions contained either 5 μL of TNA template (1/1000 dilution) or no target (dH2O).
Chlamydia DNA and RNA from 2 regions within the omp1 gene and transcripts (GAT1 and GAT2), and one NED region, were co-amplified and detected in single RT-PCR from TNA extracted from chlamydia cultures. These cultures were treated with antibiotic or left untreated (control) at an exponential growth phase. They were incubated for either 5 minutes at 37° C. (FIG. 7D) or 15 minutes at room temperature (FIG. 7E). […] The results were then compared between no treatment reactions (control) and those treated with antibiotic at each time point (FIGS. 7D-E).

[5] = Strain 1, serovar D lab strain (UW-3/Cx)
[6] = Strain 2, serovar L2 wild type lab strain (434/Bu)
[7] = Strain 3, serovar L2 mutant resistant to trimethoprim
[8] = Strain 4, serovar L2 mutant resistant to Spectinomycin
[9] = Strain 5, serovar L2 mutant resistant to Rifampicin
[10] = Resistant strain (strain 5), 5 min incubation PT at 37° C. with 5% CO2
[11] = Resistant strain (strain 5), 15 min incubation PT at room temperature
[12] = Susceptible strain (strain 1), 5 min incubation PT at 37° C. with 5% CO2
[13] = Susceptible strain (strain 1), 15 min incubation PT at room temperature

C[C@H]1c2cccc(O)c2C(=O)C2=C(O)[C@]3(O)C(=O)C(C(N)=O)=C(O)[C@@H](N(C)C)[C@@H]3[C@@H](O)[C@@H]21 [Doxycycline]
Minimum inhibitory concentration (MIC), antibiotic dose [1, 5]: 0.128 µg/mL (≈ 0.288 µM)
Minimum inhibitory concentration (MIC), antibiotic dose [1, 6]: 0.064 µg/mL (≈ 0.144 µM)
Minimum inhibitory concentration (MIC), antibiotic dose [1, 7]: 0.032 µg/mL (≈ 0.072 µM)
Minimum inhibitory concentration (MIC), antibiotic dose [1, 8]: 0.064 µg/mL (≈ 0.144 µM)
Minimum inhibitory concentration (MIC), antibiotic dose [1, 9]: 0.064 µg/mL (≈ 0.144 µM)
ΔVITA Ratio A/B ([2]; Table 12b: Strain 1, 0.256 μg/mL): 1.48
VITA Index ([2]; Table 12b: Strain 1, plus antibiotic 0.256 μg/mL): 2.80
ΔVITA Ratio A/B ([2]; Table 12b: Strain 2, 0.256 μg/mL): 1.24
VITA Index ([2]; Table 12b: Strain 2, plus antibiotic 0.256 μg/mL): 3.92
ΔVITA Ratio A/B ([2]; Table 12b: Strain 3, 0.256 μg/mL): 1.32
VITA Index ([2]; Table 12b: Strain 3, plus antibiotic 0.256 μg/mL): 5.64
ΔVITA Ratio A/B ([2]; Table 12b: Strain 5, 0.256 μg/mL): 1.43
VITA Index ([2]; Table 12b: Strain 5, plus antibiotic 0.256 μg/mL): 5.01

CC[C@H]1OC(=O)[C@H](C)[C@@H](O[C@H]2C[C@@](C)(OC)[C@@H](O)[C@H](C)O2)[C@H](C)[C@@H](O[C@@H]2O[C@H](C)C[C@H](N(C)C)[C@H]2O)[C@](C)(O)C[C@@H](C)CN(C)[C@H](C)[C@@H](O)[C@]1(C)O [Azithromycin]
Minimum inhibitory concentration (MIC), antibiotic dose [1, 5]: 0.032 µg/mL (≈ 0.0427 µM)
Minimum inhibitory concentration (MIC), antibiotic dose [1, 6]: 0.032 µg/mL (≈ 0.0427 µM)
Minimum inhibitory concentration (MIC), antibiotic dose [1, 7]: 0.016 µg/mL (≈ 0.0214 µM)
Minimum inhibitory concentration (MIC), antibiotic dose [1, 8]: 0.016 µg/mL (≈ 0.0214 µM)
Minimum inhibitory concentration (MIC), antibiotic dose [1, 9]: 0.032 µg/mL (≈ 0.0427 µM)
Susceptibility according to the MIC analysis ([1]; all strains used): susceptible
ΔVITA A/B (no antibiotic / plus antibiotic) ([3]; 1 h PT): 3.77
ΔVITA A/B (no antibiotic / plus antibiotic) ([3]; 6 h PT): 2.12

CO[C@H]1/C=C/O[C@@]2(C)Oc3c(C)c(O)c4c(O)c(c(/C=N/N5CCN(C)CC5)c(O)c4c3C2=O)NC(=O)/C(C)=C\C=C\[C@H](C)[C@H](O)[C@@H](C)[C@@H](O)[C@@H](C)[C@H](OC(C)=O)[C@@H]1C [Rifampicin]
Minimum inhibitory concentration (MIC), antibiotic dose [1, 5]: 0.008 µg/mL (≈ 0.00972 µM)
Minimum inhibitory concentration (MIC), antibiotic dose [1, 6]: 0.004 µg/mL (≈ 0.00486 µM)
Minimum inhibitory concentration (MIC), antibiotic dose [1, 7]: 0.004 µg/mL (≈ 0.00486 µM)
Minimum inhibitory concentration (MIC), antibiotic dose [1, 8]: 0.004 µg/mL (≈ 0.00486 µM)
Minimum inhibitory concentration (MIC), antibiotic dose [1, 9]: 8.192 µg/mL (≈ 9.95 µM)
ΔVITA Ratio A/B ([2]; Table 13: Strain 1, 0.256 μg/mL): 3.54
VITA Index ([2]; Table 13: Strain 1, plus antibiotic 0.256 μg/mL): 1.17
ΔVITA Ratio A/B ([2]; Table 13: Strain 2, 0.256 μg/mL): 2.93
VITA Index ([2]; Table 13: Strain 2, plus antibiotic 0.256 μg/mL): 1.66
ΔVITA Ratio A/B ([2]; Table 13: Strain 3, 0.256 μg/mL): 4.70
VITA Index ([2]; Table 13: Strain 3, plus antibiotic 0.256 μg/mL): 1.58
ΔVITA Ratio A/B ([2]; Table 13: Strain 4, 0.256 μg/mL): 5.86
VITA Index ([2]; Table 13: Strain 4, plus antibiotic 0.256 μg/mL): 1.68
ΔVITA Ratio A/B ([2]; Table 13: Strain 5 (Rifampicin resistant), 0.256 μg/mL): 1.06
VITA Index ([2]; Table 13: Strain 5 (Rifampicin resistant), plus antibiotic 0.256 μg/mL): 6.71
ΔVITA Ratio A/B [4, 10]: 1.07
ΔVITA Ratio A/B [4, 11]: 0.91
VITA Index [4, 10]: 11.18
VITA Index [4, 11]: 11.41
ΔVITA Ratio A/B [4, 12]: 1.90
ΔVITA Ratio A/B [4, 13]: 1.80
VITA Index [4, 12]: 4.69
VITA Index [4, 13]: 4.41
